Tested on: Dd2 strain of P. falciparum
Experiment: Activity against the Dd2 strain of P. falciparum (SYBR Green I, 72-h incubation)
Format: cell-based
Details: Plasmodium falciparum, DD2, 72 h, read-out: EC^50 Dd2
In short: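 Dd2 parasites at 1% parasitemia and 1.0% hematocrit in albumax II screening medium, 72 h at 37° C under 93% N2/4% CO2/3% O2; final DMSO 0.125%. Growth read as SYBR Green I fluorescence (485/530 nm) after lysis and 24 h staining. 20 μM mefloquine defined background, DMSO baseline.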

Compound | EC50 [nM]
COc1ccc2c3c([nH]c2c1)[C@H](CO)N(S(=O)(=O)c1ccc(C)cc1)CC31CCN(C(=O)Nc2ccccc2F)CC1 [Compound 144, (R)-N-(2-fluorophenyl)-1′-(hydroxymethyl)-7′-methoxy-2′-tosyl-1′,2′,3′,9′-tetrahydrospiro [piperidine-4,4′-pyrido[3,4-b]indole]-1-carboxamide] | 1080
COc1ccc2c3c([nH]c2c1)[C@H](CO)N(S(=O)(=O)C1CC1)CC31CCN(C(=O)Nc2ccccc2F)CC1 [Compound 145, (R)-2′-(cyclopropylsulfonyl)-N-(2-fluorophenyl)-1′-(hydroxymethyl)-7′-methoxy-1′,2′,3′,9′-tetrahydrospiro [piperidine-4,4′-pyrido[3,4-b]indole]-1-carboxamide] | 113
COc1ccc2c3c([nH]c2c1)[C@H](CO)N(S(=O)(=O)C(F)(F)F)CC31CCN(C(=O)Nc2ccccc2F)CC1 [Compound 146, (R)-N-(2-fluorophenyl)-1′-(hydroxymethyl)-7′-methoxy-2′-((trifluoromethyl)sulfonyl)-1′,2′,3′,9′-tetrahydrospiro [piperidine-4,4′-pyrido[3,4-b]indole]-1-carboxamide] | 269
COc1ccc2c3c([nH]c2c1)[C@H](CO)N(S(=O)(=O)c1ccccc1)CC31CCN(C(=O)Nc2ccccc2F)CC1 [Compound 147, (R)-N-(2-fluorophenyl)-1′-(hydroxymethyl)-7′-methoxy-2′-(phenylsulfonyl)-1′,2′,3′,9′-tetrahydrospiro [piperidine-4,4′-pyrido+[,4-b]indole]-1-carboxamide] | 391
CCS(=O)(=O)N1CC2(CCN(C(=O)OC(C)(C)C)CC2)c2c([nH]c3cc(OC)ccc23)[C@@H]1CO [Compound 148, (R)-tert-butyl 2′-(ethylsulfonyl)-1′-(hydroxymethyl)-7′-methoxy-1′,2′,3′,9′-tetrahydrospiro [piperidine-4,4′-pyrido[3,4-b]indole]-1-carboxylate] | 8530
CCCS(=O)(=O)N1CC2(CCN(C(=O)Nc3ccccc3F)CC2)c2c([nH]c3cc(OC)ccc23)[C@@H]1CO [Compound 149, (R)-N-(2-fluorophenyl)-1′-(hydroxymethyl)-7′-methoxy-2′-(propylsulfonyl)-1′,2′,3′,9′-tetrahydrospiro [piperidine-4,4′-pyrido[3,4-b]indole]-1-carboxamide] | 221
CCS(=O)(=O)N1CC2(CCN(C(=O)Nc3ccccc3F)CC2)c2c([nH]c3cc(OC)ccc23)[C@@H]1CO [Compound 150, (R)-2′-(ethylsulfonyl)-N-(2-fluorophenyl)-1′-(hydroxymethyl)-7′-methoxy-1′,2′,3′,9′-tetrahydrospiro [piperidine-4,4′-pyrido[3,4-b]indole]-1-carboxamide] | 14 to 58

Same assay, conditions: read-out: EC^50 Dd2

Compound | EC50 [nM]
Mixture of (1R,3′R) and (1R,3′S)-2-acetyl-1- (((tert-butyldimethylsilyl) oxy)methyl)-N- (2-fluorophenyl)-7-methoxy- 1,2,3,9-tetrahydrospiro [pyrido[3,4-b]indole- 4,3′-pyrrolidine]-1′- carboxamide compound with (1R,3′S)- 2-acetyl-1- (((tert-butyldimethylsilyl) oxy)methyl)-N-(2- fluorophenyl)-7-methoxy- 1,2,3,9- tetrahydrospiro[pyrido [3,4-b]indole-4-3′- pyrrolidine]-1′- carboxamide (1:1) [Compound 75] | 3210
Mixture of (1R,3′R) and (1R,3′S)-tert-butyl 2-acetyl-1-(((tert- butyldimethylsilyl)oxy) methyl)-7-methoxy- 1,2,3,9- tetrahydrospiro [pyrido[3,4-b]indole- 4,3′-pyrrolidine]-1′- carboxylate compound with (1R,3′S)-tert-butyl 2-acetyl-1- (((tert-butyldimethylsilyl) oxy)methyl)-7- methyoxy-1,2,3,9- tetrahydrospiro[pyrido [3,4-b]indole-4,3′- pyrrolidine]-1′- carboxylate (1:1) [Compound 76] | 1470
Mixture of (1R,3′R) and (1R,3′s)-2-acetyl-N-(2- fluorophenyl)-1- (hydroxymethyl)-7- methoxy-1,2,3,9- tetrahydrospiro[pyrido [3,4-b]indole-4,3′- pyrrolidine]-1′- carboxamide compound with (1R,3′S)-2- acetyl-N-(2- fluorophenyl)-1- (hydroxymethyl)-7- methoxy- 1,2,3,9-tetrahydrospiro [pyrido[3,4-b] indole-4,3′-pyrrolidine]- 1′-carboxamide (1:1) [Compound 72] | 16500

From US9428507B2, “Compounds for the treatment of malaria” (The Broad Institute, Inc., priority 2013, dated 2016)
